Data as given in patent US10481149B2.

Assays:
BSEP [1] = molecular target: T1, BSEP (Rattus norvegicus, UniProt O70127); assay: IC50 for inhibition of BSEP activity in rat hepatocytes; type: cell-based
T1 sequence (O70127 1-1321): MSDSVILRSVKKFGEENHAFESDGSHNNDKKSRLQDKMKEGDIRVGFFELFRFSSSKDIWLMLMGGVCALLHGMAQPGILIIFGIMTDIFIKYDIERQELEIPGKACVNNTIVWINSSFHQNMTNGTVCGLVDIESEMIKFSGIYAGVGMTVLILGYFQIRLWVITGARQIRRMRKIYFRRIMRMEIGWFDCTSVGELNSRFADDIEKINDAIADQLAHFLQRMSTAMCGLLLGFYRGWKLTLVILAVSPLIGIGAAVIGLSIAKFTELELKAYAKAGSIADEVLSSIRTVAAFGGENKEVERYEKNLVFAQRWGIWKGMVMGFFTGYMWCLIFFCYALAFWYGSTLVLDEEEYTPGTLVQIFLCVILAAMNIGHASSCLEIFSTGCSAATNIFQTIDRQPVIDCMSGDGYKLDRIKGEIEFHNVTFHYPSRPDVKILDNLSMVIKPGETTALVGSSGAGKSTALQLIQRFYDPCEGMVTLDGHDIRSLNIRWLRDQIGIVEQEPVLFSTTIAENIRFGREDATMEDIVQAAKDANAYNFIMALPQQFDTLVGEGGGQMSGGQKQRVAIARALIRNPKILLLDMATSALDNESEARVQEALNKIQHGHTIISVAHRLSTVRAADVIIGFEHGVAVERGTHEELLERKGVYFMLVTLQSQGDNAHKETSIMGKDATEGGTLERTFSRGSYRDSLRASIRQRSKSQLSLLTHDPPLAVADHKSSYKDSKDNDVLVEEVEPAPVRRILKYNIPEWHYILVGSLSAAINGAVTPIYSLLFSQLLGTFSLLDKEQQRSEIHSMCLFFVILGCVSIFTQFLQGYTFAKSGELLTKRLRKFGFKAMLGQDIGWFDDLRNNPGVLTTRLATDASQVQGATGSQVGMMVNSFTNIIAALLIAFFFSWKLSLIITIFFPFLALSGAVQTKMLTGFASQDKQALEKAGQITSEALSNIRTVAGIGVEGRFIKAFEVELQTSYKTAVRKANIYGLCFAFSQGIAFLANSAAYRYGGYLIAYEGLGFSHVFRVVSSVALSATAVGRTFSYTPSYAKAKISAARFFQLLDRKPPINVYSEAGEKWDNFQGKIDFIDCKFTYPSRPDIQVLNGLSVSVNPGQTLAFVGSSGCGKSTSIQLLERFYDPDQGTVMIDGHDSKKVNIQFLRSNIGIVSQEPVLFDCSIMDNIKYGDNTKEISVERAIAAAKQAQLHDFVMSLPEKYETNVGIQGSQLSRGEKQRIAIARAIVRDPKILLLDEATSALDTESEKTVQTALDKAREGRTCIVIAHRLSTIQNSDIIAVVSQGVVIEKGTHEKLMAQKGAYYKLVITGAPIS
Description: (§1) Kinetic parameters were calculated using standard Michaelis-Menten kinetics. IC50 values were determined using Prism software (La Jolla, Calif.) or median-effect equation. [Chou et al., Theoretical basis, experimental design, and computerized simulation of synergism and antagonism in Drug Combination Studies. Pharmacological Reviews 58, 621, 2006]

BSEP [2] = molecular target: BSEP (Homo sapiens, UniProt O95342); assay: IC50 for inhibition of BSEP activity in human hepatocytes; type: cell-based
Description: as §1

Chain of BSEP (Homo sapiens, UniProt O95342) (O95342 whole entry): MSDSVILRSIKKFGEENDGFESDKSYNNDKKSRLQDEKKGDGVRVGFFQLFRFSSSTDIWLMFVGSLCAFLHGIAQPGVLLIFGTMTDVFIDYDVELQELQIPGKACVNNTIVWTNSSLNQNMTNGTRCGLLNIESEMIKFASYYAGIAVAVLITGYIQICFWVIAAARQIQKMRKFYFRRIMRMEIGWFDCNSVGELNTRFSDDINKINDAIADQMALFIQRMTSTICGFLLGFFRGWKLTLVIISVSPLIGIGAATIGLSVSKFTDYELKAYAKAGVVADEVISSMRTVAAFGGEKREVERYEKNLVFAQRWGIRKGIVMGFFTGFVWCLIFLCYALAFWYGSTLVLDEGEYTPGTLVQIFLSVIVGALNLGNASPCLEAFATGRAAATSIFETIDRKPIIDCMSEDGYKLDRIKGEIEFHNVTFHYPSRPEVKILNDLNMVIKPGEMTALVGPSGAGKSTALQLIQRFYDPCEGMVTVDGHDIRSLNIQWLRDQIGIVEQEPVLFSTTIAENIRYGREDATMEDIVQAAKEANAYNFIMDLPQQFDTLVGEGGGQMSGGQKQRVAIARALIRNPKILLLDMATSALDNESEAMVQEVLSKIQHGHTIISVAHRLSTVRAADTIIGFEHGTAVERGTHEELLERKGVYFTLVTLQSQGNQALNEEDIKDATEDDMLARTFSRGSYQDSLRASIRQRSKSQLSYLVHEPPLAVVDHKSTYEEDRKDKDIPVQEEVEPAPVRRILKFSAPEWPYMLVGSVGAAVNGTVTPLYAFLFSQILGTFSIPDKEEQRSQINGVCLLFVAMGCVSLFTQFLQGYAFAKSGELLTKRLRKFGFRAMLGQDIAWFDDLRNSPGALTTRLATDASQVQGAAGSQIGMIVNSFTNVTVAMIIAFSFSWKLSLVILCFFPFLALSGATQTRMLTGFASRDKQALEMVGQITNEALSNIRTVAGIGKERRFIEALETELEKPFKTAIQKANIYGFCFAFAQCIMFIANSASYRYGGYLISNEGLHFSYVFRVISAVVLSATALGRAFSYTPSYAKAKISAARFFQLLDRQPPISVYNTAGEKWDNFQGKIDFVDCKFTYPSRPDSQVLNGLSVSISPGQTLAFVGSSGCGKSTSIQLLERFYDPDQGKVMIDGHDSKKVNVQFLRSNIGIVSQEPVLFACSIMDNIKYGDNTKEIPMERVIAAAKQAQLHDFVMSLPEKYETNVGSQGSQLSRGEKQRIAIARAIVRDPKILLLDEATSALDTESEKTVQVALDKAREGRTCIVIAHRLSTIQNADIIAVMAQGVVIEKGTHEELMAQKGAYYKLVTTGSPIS

Structure (SMILES) | IC50 (BSEP [1]) [µM] | IC50 (BSEP [2]) [µM]
CO[C@H]1/C=C/O[C@@]2(C)Oc3c(C)c(O)c4c(O)c(c(/C=N/N5CCN(C)CC5)c(O)c4c3C2=O)NC(=O)/C(C)=C\C=C\[C@H](C)[C@H](O)[C@@H](C)[C@@H](O)[C@@H](C)[C@H](OC(C)=O)[C@@H]1C [Rifampicin] | 1 to 10 | –
CC(=O)N1CCN(c2ccc(OCC3COC(Cn4ccnc4)(c4ccc(Cl)cc4Cl)O3)cc2)CC1 (stereo not shown) [Ketoconazole, ketoconazole] | > 10 | –
Cc1c(C)c2c(c(C)c1O)CCC(C)(COc1ccc(CC3SC(=O)NC3=O)cc1)O2 (stereo not shown) [Troglitazone, troglitazone] | 1 to 10 | 1 to 10
